Patent US20220056019A1, “FARNESOID X RECEPTOR AGONISTS AND USES THEREOF” (Metacrine, Inc., priority 2018, published 2022)

These compounds were tested against T1, hFXR (Homo sapiens, UniProt Q96RI1) (assay: In Vitro FXR Assay (TK): TK-ECRE-luc reporter in transfected CV-1 cells). Details: 18 hrs incubation, luminescence.
T1 construct: expressed in transfected cells; host or cells: CV-1 cells
T1 sequence (Q96RI1 1-486): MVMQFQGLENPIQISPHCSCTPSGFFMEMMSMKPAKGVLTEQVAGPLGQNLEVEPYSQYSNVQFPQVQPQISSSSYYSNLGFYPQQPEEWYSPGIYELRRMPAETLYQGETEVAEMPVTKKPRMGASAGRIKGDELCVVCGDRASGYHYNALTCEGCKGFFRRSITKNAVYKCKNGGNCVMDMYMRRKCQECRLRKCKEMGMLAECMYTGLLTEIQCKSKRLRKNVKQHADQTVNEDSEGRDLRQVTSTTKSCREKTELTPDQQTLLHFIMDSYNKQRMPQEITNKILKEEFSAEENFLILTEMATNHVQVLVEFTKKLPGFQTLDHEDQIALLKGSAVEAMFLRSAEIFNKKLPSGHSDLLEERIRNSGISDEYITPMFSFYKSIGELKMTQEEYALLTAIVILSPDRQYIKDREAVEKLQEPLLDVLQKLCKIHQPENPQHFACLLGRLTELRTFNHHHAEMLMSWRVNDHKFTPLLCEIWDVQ
T1 sequence (P19793 1-462 partner): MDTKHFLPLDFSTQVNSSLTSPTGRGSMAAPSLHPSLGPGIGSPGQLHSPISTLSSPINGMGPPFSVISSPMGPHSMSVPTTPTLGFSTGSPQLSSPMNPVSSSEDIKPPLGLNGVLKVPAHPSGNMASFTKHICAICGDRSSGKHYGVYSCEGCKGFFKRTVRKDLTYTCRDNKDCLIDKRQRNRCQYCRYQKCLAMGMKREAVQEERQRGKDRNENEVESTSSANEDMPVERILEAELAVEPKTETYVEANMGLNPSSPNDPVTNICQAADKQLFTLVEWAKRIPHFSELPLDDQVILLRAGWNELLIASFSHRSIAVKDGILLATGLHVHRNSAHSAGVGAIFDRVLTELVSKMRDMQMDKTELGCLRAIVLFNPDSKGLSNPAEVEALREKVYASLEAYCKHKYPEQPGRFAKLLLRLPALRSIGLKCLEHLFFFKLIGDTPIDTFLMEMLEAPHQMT
Type: cell-based
How it was run: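 CV-1 cells in DMEM with 10% charcoal-stripped FBS were transiently co-transfected with hFXR, hRXR, TK-ECRE-luc reporter and pCMX-YFP plasmids over 18 h at 37 °C. Compounds serially diluted in DMSO were added for 18 h; cells were then lysed and luciferase luminescence measured.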

| Structure (SMILES) | EC50 [nM] |
| --- | --- |
| COc1ccc(C23CCC(CN(c4cc(C5CCN(C(C)C)CC5)ccn4)C(=O)[C@H]4CC[C@H](OC(=O)N5CC(O)C5)CC4)(CC2)CC3)cc1C [Compound 23.17, 4-((4-(1-Isopropylpiperidin-4-yl)pyridin-2-yl)((4-(4-methoxy-3-methylphenyl)bicyclo[2.2.2]octan-1-yl)methyl)carbamoyl)cyclo-hexyl trans-3-hydroxyazetidine-1-carboxylate] | 50 to 1000 |
| COc1ccc([C@H]2CC[C@H](CN(c3cc(-c4cc(C5CC5)no4)ccn3)C(=O)[C@H]3CC[C@H](OC(=O)N4CC(O)C4)CC3)CC2)cc1C [Compound 2.38, trans-4-((4-(3-Cyclopropylisoxazol-5-yl)pyridin-2-yl)((trans-4-(4-methoxy-3-methylphenyl)cyclohexyl)methyl)carbamoyl)cyclohexyl 3-hydroxyazetidine-1-carboxylate] | ≤ 50 |
| COc1ccc(C23CCC(CN(c4cc(-c5coc(C(C)C)n5)ccn4)C(=O)[C@H]4CC[C@H](OC(=O)NCCCO)CC4)(CC2)CC3)cc1C [Compound 23.02, 4-((4-(2-Isopropyloxazol-4-yl)pyridin-2-yl)((4-(4-methoxy-3-methylphenyl)bicyclo[2.2.2]octan-1-yl)methyl)carbamoyl)(trans-cyclohexyl)(3-hydroxypropyl)carbamate] | ≤ 50 |
| COc1ccc(C23CCC(CN(c4cc(-c5cnn(C(C)C)c5)ccn4)C(=O)[C@H]4CC[C@H](OC(=O)NCCCO)CC4)(CC2)CC3)cc1C [Compound 4.07, 4-((4-(1-Isopropyl-1H-pyrazol-4-yl)pyridin-2-yl)((4-(4-methoxy-3-methylphenyl)bicyclo [2.2.2]octan-1-yl)methyl)carbamoyl)cyclohexyl (3-hydroxypropyl)trans-carbamate] | ≤ 50 |
| COc1ccc([C@H]2CC[C@H](CN(c3cc(-c4cnc(N(C)C)nc4)ccn3)C(=O)[C@H]3CC[C@H](OC(=O)N4CC(O)C4)CC3)CC2)cc1C [Compound 3.01, trans-4-((4-(2-(Dimethylamino)pyrimidin-5-yl)pyridin-2-yl)((trans-4-(4-methoxy-3-methylphenyl)cyclohexyl)methyl)carbamoyl) cyclohexyl 3-hydroxyazetidine-1-carboxylate] | ≤ 50 |
| CCCNC(=O)O[C@H]1CC[C@H](C(=O)N(C[C@H]2CC[C@H](c3ccc(OC)c(C)c3)CC2)c2cccc(-c3cnn(C(C)C)c3)c2)CC1 [Compound 5.03, trans-4-((3-(1-Isopropyl-1H-pyrazol-4-yl)phenyl)(((trans)-4-(4-methoxy-3-methylphenyl)cyclohexyl)methyl)carbamoyl)cyclohexyl propylcarbamate] | ≤ 50 |
| COc1ccc([C@H]2CC[C@H](CN(c3cccc(-c4cnn(C(C)C)c4)c3)C(=O)[C@H]3CC[C@H](OC(=O)NCC(C)(F)F)CC3)CC2)cc1C [Compound 5.06, trans-4-((3-(1-Isopropyl-1H-pyrazol-4-yl)phenyl)(((trans)-4-(4-methoxy-3-methylphenyl)cyclohexyl)methyl)carbamoyl)cyclohexyl (2,2-difluoropropyl)carbamate] | ≤ 50 |
| COc1ccc(C23CCC(CN(c4cc(-c5coc(C(C)C)n5)ccn4)C(=O)[C@H]4CC[C@H](OC(=O)NC5COC5)CC4)(CC2)CC3)cc1C [Compound 23.04, 4-((4-(2-Isopropyloxazol-4-yl)pyridin-2-yl)((4-(4-methoxy-3-methylphenyl)bicyclo[2.2.2]octan-1-yl)methyl)carbamoyl)(trans-cyclohexyl)oxetan-3-ylcarbamate] | ≤ 50 |
| COc1ccc(C23CCC(CN(c4cc(-c5nc(C(C)C)no5)ccn4)C(=O)[C@H]4CC[C@H](OC(=O)N5CC(O)C5)CC4)(CC2)CC3)cc1C [Compound 26.13, 4-((4-(3-isopropyl-1,2,4-oxadiazol-5-yl)pyridin-2-yl)((4-(4-methoxy-3-methylphenyl)bicyclo[2.2.2]octan-1-yl)methyl)carbamoyl)cyclohexyl trans-3-hydroxyazetidine-1-carboxylate] | ≤ 50 |
